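Results reflect a 48-hour exposure of cells in 96-well plates to compound at five concentrations. GI50 = concentration required for 50% inhibition of growth. At the TGI there is no net growth.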
Key:
Test in all cases: inhibition of tumour cell growth, NCI panel, 48 h
SF-295 CNS = tested on: SF-295 CNS
NCI-H522 lung = tested on: NCI-H522 lung
TK-10 renal = tested on: TK-10 renal
786-0 renal = tested on: 786-0 renal
SF-539 CNS = tested on: SF-539 CNS
SK-MEL-2 melanoma = tested on: SK-MEL-2 melanoma
PC-3 prostate = tested on: PC-3 prostate
NCI/ADR-RES ovarian = tested on: NCI/ADR-RES ovarian
SN12C renal = tested on: SN12C renal
ACHN renal = tested on: ACHN renal

| SMILES | GI50 (SF-295 CNS) [µM] | TGI (SF-295 CNS) [µM] | GI50 (NCI-H522 lung) [µM] | TGI (NCI-H522 lung) [µM] | GI50 (TK-10 renal) [µM] | TGI (TK-10 renal) [µM] | GI50 (786-0 renal) [µM] | TGI (786-0 renal) [µM] | GI50 (SF-539 CNS) [µM] | TGI (SF-539 CNS) [µM] | GI50 (SK-MEL-2 melanoma) [µM] | TGI (SK-MEL-2 melanoma) [µM] | GI50 (PC-3 prostate) [µM] | TGI (PC-3 prostate) [µM] | GI50 (NCI/ADR-RES ovarian) [µM] | TGI (NCI/ADR-RES ovarian) [µM] | GI50 (SN12C renal) [µM] | TGI (SN12C renal) [µM] | TGI (ACHN renal) [µM] | GI50 (ACHN renal) [µM] |
| --- | --- | --- | --- | --- | --- | --- | --- | --- | --- | --- | --- | --- | --- | --- | --- | --- | --- | --- | --- | --- |
| Oc1ccccc1-c1nn(CNc2ccc(Cl)cc2)c(=S)o1 | > 100 | > 100 | > 100 | > 100 | 1.53 | > 100 | > 100 | > 100 | 23.8 | > 100 | > 100 | > 100 | > 100 | > 100 | 18.9 | 79.7 | 75.8 | > 100 |  |  |
| O=C1CCCCCCC2=C1C(Sc1ccccc1)CC2 (centres undefined) |  | > 100 |  | 41.4 |  | > 100 |  | 33 |  |  |  |  |  |  |  |  |  | 42.3 | > 100 |  |
| CSc1cc([C@@H]2C[C@H]2c2ccc(Cl)cc2)on1 | 34.1 | 69.2 | 6.91 | 45.9 | 12.5 | 31.5 | 15 | 55.3 |  |  | 25.2 | 82.3 | 16 | 33.6 | 13.6 | 42.4 | 5.17 | 20.5 | > 100 | 13.9 |
| COc1ccc(-c2ncnc3c2ncn3CC#CCCl)cc1 | 2.35 | 7.15 | 3.09 | 14 | 7.29 | 24 | 1.86 | 3.93 | 6.48 | 20.9 |  |  | 6.82 | 24.7 | 2.72 | 8.15 | 2.26 | 6.32 | 14.8 | 3.62 |
| CC(=O)OCc1c(O)c2c([nH]c1=O)CCc1ccccc1-2 |  | 274 |  | 84.6 |  | 186 |  | 115 |  | 177 |  | > 35 |  |  |  |  |  | 155 | > 350 |  |
| O=[N+]([O-])c1ccc(-c2csc(N=Nc3c(O)[nH]c4ccccc34)n2)cc1 |  | > 100 |  |  |  | 35.6 |  | > 100 |  | 39.3 |  | 84.2 |  | 86.2 |  | > 100 |  | 96.5 | > 100 |  |
| Cc1ccc(NCC2(/N=C/c3ccccc3)OC(CO)C(O)C2O)cc1 (centres undefined) |  | > 100 |  | > 100 |  | > 100 |  | > 100 |  | > 100 |  | > 100 |  |  |  |  |  |  | > 100 |  |
| Cc1ccc(S(=O)(=O)ON2C(=O)c3cccc4cc([N+](=O)[O-])cc(c34)C2=O)cc1 |  | > 100 |  | > 100 |  | > 100 |  | > 100 |  |  |  | > 100 |  | > 100 |  | > 100 |  | > 100 | > 100 |  |
| O=S1(=O)c2ccccc2N(O)C2=NCCN21 |  | > 100 |  | > 100 |  | > 100 |  | > 100 |  | > 100 |  | > 100 |  |  |  |  |  | > 100 | > 100 |  |
| CN(C)c1ccc(/C=c2\sc3nnc(-c4ccco4)n3c2=O)cc1 |  | > 100 |  | > 100 |  | > 100 |  | > 100 |  | > 100 |  | > 100 |  |  |  |  |  | > 100 |  |  |
| CC(=O)OC12C(C)=C(C)C(=O)N1c1ccccc1N2C(C)=O (centres undefined) |  | > 100 |  | > 100 |  | > 100 |  | > 100 |  |  |  | > 100 |  |  |  |  |  |  | > 100 |  |
